ChEMBL document CHEMBL1629509, “Design, synthesis and inhibitory activity against Mycobacterium tuberculosis thymidine monophosphate kinase of acyclic nucleoside analogues with a distal imidazoquinolinone” (Eur J Med Chem, 2010)
In brackets after ≈: the same amount, converted by molar mass. Activity calls are given as the source filed them. The calls are words filed in the database; no cut-off is given here.

Legend:
[1] = tested on: Mycolicibacterium smegmatis; assay: Antimycobacterial activity against Mycobacterium smegmatis mc2155 assessed as growth inhibition at 160 ug/ml by resazurin microtiter plate assay; type: functional, organism-based
Thymidylate kinase = target: T1, Thymidylate kinase (Mycobacterium tuberculosis, UniProt P9WKE1); assay: Inhibition of Mycobacterium tuberculosis Thymidine monophosphate kinase by spectrophotometry
T1 sequence (P9WKE1 whole entry): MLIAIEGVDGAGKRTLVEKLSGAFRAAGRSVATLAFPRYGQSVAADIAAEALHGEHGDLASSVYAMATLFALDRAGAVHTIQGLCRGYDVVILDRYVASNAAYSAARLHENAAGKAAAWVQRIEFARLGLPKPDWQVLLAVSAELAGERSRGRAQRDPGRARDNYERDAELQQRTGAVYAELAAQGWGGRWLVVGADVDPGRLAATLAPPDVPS

[2] = Solubility of the compound in water; type: physicochemical

Row | Structure (SMILES) | Activity [1] | Ki (Thymidylate kinase) [nM] | solubility [2] [µg/mL]
1 | Cc1cn(C/C=C/Cn2c(=O)n3c4c(cccc42)CCC3)c(=O)[nH]c1=O | inactive | 1160 | –
2 | CC(=O)NC1Cc2cccc3c2n(c(=O)n3C/C=C/Cn2cc(C)c(=O)[nH]c2=O)C1 (stereo not drawn) | inactive | 5800 | –
3 | Cc1cn([C@H]2C[C@H](O)[C@@H](COP(=O)(O)O)O2)c(=O)[nH]c1=O [THYMIDINE MONOPHOSPHATE] | – | 4500 | –
4 | Cc1cn(C/C=C/CN2c3cccc4cccc(c34)S2(=O)=O)c(=O)[nH]c1=O | – | 270 | –
5 | Cc1cn(C/C=C/CN2C(=O)c3cccc4cccc2c34)c(=O)[nH]c1=O | – | 420 | 640 (≈ 1840 µM)
6 | CC(=O)Nc1cc2c3c(c1)n(C/C=C/Cn1cc(C)c(=O)[nH]c1=O)c(=O)n3CCC2 | inactive | 930 | –
7 | Cc1cn(C/C=C/CN2c3cccc4c3N(CCC4)S2(=O)=O)c(=O)[nH]c1=O | inactive | 570 | –
8 | O=c1[nH]c(=O)n(C/C=C/CN2c3cccc4c3N(CCC4)S2(=O)=O)cc1Br | inactive | 300 | –
9 | Cc1cn(C/C=C/Cn2c(=O)n3c4c(cc(N)cc42)CCC3)c(=O)[nH]c1=O | inactive | 2460 | –
10 | Cc1cn(C/C=C/Cn2c(=O)n3c4c(cccc42)CC(N)C3)c(=O)[nH]c1=O (stereo not drawn) | inactive | 7070 | –
